This note sets out measurements from US12414960B2, “Analogues of oleuropein and oleacein and uses thereof” (Attica Sciences Ltd., priority 2020, dated 2025).

Assay [1] concerns MKN-45 gastric cancer cells. The assay is described as follows: XTT cell growth assay, MKN-45. Conditions: NS = not statistically significant; for inhibition at 50 µM: Homo sapiens, MKN-45, 24 h, read-out: Effectiveness to suppress MKN-45 cell growth (cell growth inhibition). The format is cell-based, human. From the text: The XTT assay is used to measure cellular metabolic activity as an indicator of cell viability, proliferation and cytotoxicity. This non-radioactive, colorimetric assay system was first described by Scudiero, et al. in 1988 (Paull, Kenneth D. et al., J Heterocycl Chem, 1988, 25: 911-914; Scudiero, Dominic A. et al., Cancer Res, 1988, 48: 4827-4833) and improved in subsequent years by several other investigators (Weislow, Owen S. et al., J Natl Cancer Inst, 1989, 81(8): 577-586; Roehm, N. W. et al., J Immunol Methods, 1991, 142: 257-265).
The XTT assay is based on the reduction of a yellow tetrazolium salt (sodium 3′-[1-(phenylaminocarbonyl)-3,4-tetrazolium]-bis (4-methoxy6-nitro) benzene sulfonic acid hydrate or XTT) to an orange formazan dye by metabolically active cells (FIG. 8). The formazan dye formed is soluble in aqueous solutions and is directly quantified using a scanning multiwell spectrophotometer (ELISA reader). An increase in number of living cells results in an increase in the overall activity of mitochondrial dehydrogenases in the sample. This increase directly correlates to the amount of orange formazan formed, as monitored by the absorbance. Reduced number of living cells leads to reduced metabolism of quaternary salt and therefore reduced absorption.
Cell viability was assessed using the XTT assay kit (Roche, Mannheim, Germany) as described previously (Kouka, Paraskevi et al., Oxid Med Cell Longev. 2019, Article ID 1870965). Briefly, cancer cells per well were cultured in a 96-well plate in Dulbecco's modified Eagle's medium (DMEM). Following a 24 h incubation, 5, 10 and 50 μM of the tested GS compound was diluted in a serum-free DMEM and administered for 24 h. Subsequently, 50 μL of the XTT reagent (50:1) was added to each well. After 4 h of incubation, the absorbance was monitored at 450 nm and also at 630 nm as a reference wavelength in a BioTek ELx800 microplate reader (BioTek Instruments Inc., Winooski, VT, USA). As a negative control, samples containing serum-free DMEM only were used.
MKN-45 is a human gastric adenocarcinoma, established from the poorly differentiated adenocarcinoma of the stomach (medullary type) of a person.
The effects of exemplary compounds on cancer cell lines and one non-tumorigenic cell line (control) were investigated using a high throughput screening assay. More specifically, the effects of the GS compounds on cell growth was evaluated by the XTT assay for cell lines HepG2, HeLa, MCF7 ER+, MDA-MB-231, and MKN-45, and by the Cell Glo luminescence assay for cell lines MIA PaCa-2, HCT-116, MCF-10A, and PANC-1.
On the technique in general: Tetrazolium assays rely on reduction of a dye to a coloured formazan, in cell work by metabolically active cells.

The test system of another assay is pACLY (S455). The experiment in a line: ELISA of pACLY (S455) / ACLY enzymatic activity in PANC-1 cells. The format is cell-based, human. Conditions: 5 μM. As for the experimental part: ELISA assay was used to evaluate the effect of GS compounds on protein activity levels in PANC-1 cancer cells. PANC-1 cells were serum-starved overnight and then treated with rIGF1 (100 ng/mL) for 24 hours, with or without GS27 (5 μM). The levels of the following proteins were evaluated by ELISA assay: a) p70 S6 (T389) (cat no. 54164C, Cell Signaling); b) pAKT (S473), (cat no. 80895, Cell Signaling); c) pACLY (S455), (cat no. okag1672, Avivasysbio); d) pAMPK (T172) (cat no. 7959C, Cell Signaling) and e) p65/NFKB (S536), (cat no. 7173, Cell Signaling).
PANC-1 is a human pancreatic ductal adenocarcinoma cell line derived from the carcinoma of a person.
The molecular mechanism of action of GS27, a compound that has exerted potent anti-cancer activity in different cancer cell lines including pancreatic cancer cells, was investigated. Oleacein has been implicated to have anti-inflammatory and metabolic effects, thus the potential effects of GS27 in different metabolic and inflammatory pathways were evaluated. Specifically, the protein levels of p70 S6 (T389), pAKT (S473), pACLY (S455), pAMPK (T172) and p65/NFKB (S536) were evaluated by ELISA assay in PANC-1 pancreatic cancer cells treated with 5 μM GS27. GS27 reduced p70 S6 and AKT phosphorylation levels, while it increased AMPK phosphorylation.
The effects of different GS compounds on ACLY enzymatic activity were evaluated by ELISA assay in PANC-1 pancreatic cancer cells. […] This finding is unexpected, since GS21 has a very similar structure with GS27, with the only difference being the presence of an oxygen atom in ester GS21 instead of a sulfur atom in thioester GS27.
On the technique in general: ELISA stands for enzyme-linked immunosorbent assay.

“Also recorded” adds a separate entry of the source.

Broadly, the inhibition is the percentage by which the read-out fell short of the control. `C/C=C(/C=O)[C@@H](CC=O)CC(=O)OCCc1ccc(O)cc1` [GS19, (3S,4E)-4-formyl-3-(2-oxoethyl)-4-hexenoic acid 2-(4-hydroxyphenyl)ethyl ester, reference compound]: the inhibition at 50 µM in assay [1] was found to be 44.4%.

Consider `C/C=C(/C=O)[C@@H](CC=O)CC(=O)SCCc1ccccc1` [GS27, S-phenethyl (3S,4E)-4-formyl-3-(2-oxoethyl)hex-4-enethioate], for which the “ACLY enzymatic activity (ELISA)” value in the assay with pACLY (S455) is “dramatic effect on reducing; also recorded: substantially reducing”.

On to `C/C=C(/C=O)[C@@H](CC=O)CC(=O)OCCOc1ccccc1` [GS24, (3S,4E)-4-formyl-3-(2-oxoethyl)-4-hexenoic acid 2-phenoxyethyl ester], for which the inhibition at 50 µM in assay [1] came to 35.4%. Moreover, in the assay on pACLY (S455), the “ACLY enzymatic activity (ELISA)” value is listed as “small effect”.

In the case of `C/C=C(/C=O)[C@@H](CC=O)CC(=O)OCCCCCCCCCCCCCCCC` [GS26, (3S,4E)-4-formyl-3-(2-oxoethyl)-4-hexenoic acid hexadecyl ester], the “ACLY enzymatic activity (ELISA)” value in the assay on pACLY (S455) is “did not show any effect”.

On to `C/C=C(/C=O)[C@@H](CC=O)CC(=O)OCCCSC` [GS28, (3S,4E)-4-formyl-3-(2-oxoethyl)-4-hexenoic acid 3-(methylthio)propyl ester], for which the “Effectiveness to suppress MKN-45 cell growth (cell growth inhibition)” value in assay [1] (50 uM, 24 h) is listed as “highly effective”. Further, in assay [1], the inhibition at 50 µM turned out to be 95%. Moreover, the “ACLY enzymatic activity (ELISA)” value in the assay with pACLY (S455) is “did not show any effect”.
